How the values were obtained:
[1] = target: T1, Lysosomal acid glucosylceramidase (Homo sapiens, UniProt P04062); experiment: GCase IC50 Assay
T1 sequence (P04062 whole entry): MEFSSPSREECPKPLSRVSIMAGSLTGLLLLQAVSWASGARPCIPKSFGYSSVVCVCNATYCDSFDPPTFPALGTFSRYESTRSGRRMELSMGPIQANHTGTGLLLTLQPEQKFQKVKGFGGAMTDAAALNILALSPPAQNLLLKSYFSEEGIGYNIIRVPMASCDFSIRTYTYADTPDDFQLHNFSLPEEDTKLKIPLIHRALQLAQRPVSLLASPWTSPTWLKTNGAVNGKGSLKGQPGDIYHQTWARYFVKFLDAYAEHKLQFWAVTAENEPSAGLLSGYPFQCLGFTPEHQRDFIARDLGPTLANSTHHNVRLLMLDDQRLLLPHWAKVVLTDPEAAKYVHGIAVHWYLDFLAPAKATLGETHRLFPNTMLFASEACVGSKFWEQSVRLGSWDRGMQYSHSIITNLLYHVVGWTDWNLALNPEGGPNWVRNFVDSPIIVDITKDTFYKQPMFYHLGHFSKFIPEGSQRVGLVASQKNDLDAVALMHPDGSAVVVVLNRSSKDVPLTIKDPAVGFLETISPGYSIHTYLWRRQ

[2] = target: T1, Lysosomal acid glucosylceramidase; experiment: GCase Ki Assay; settings: pH 5.2
Alpha-galactosidase = Alpha-galactosidase (Coffea arabica, UniProt Q42656); experiment: Inhibition Assay Against Commercial Glycosidases; settings: 37 °C
Alpha-galactosidase, sequence (Q42656 whole entry): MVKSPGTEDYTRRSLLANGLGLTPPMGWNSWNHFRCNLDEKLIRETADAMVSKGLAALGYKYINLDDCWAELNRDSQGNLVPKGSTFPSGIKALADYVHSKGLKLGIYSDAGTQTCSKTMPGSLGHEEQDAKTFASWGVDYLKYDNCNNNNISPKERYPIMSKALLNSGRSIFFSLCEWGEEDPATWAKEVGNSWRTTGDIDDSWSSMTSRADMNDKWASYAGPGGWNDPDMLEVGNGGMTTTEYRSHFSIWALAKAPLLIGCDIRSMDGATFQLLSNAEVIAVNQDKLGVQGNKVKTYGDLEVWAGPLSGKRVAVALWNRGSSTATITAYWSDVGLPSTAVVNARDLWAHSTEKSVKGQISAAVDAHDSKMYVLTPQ
Method: (§1) In a 96-well plates, 10µL of commercial enzyme solutions without (control) or with 20µL of inhibitor were incubated at 37°C for 5 min. After addition of 20µL of substrate solution, incubations were prolonged for different time periods: 10 min for β-glucosidase (almond), 5 min for α-glucosidase (saccharomyces cerevisiae) and 8 min for β-galactosidase (bovine liver) and α-galactosidase (green coffee beans) and stopped by addition of 150µL of glycine/NaOH buffer (100mM, pH 10.6). The amount of 4-MU formed was determined at 355nm (excitation) and 460nm (emission). For β-glucosidase (almond), the activity was determined with 4-MU-β-D-Glu (1mM) in sodium acetate buffer (100 mM, pH 5.2). For α-glucosidase (saccharomyces cerevisiae), the activity was determined with4-methylumbelliferyl-α-D-glucopyranoside (4-MU-α-D-Glu, 1 mM) in sodium phosphate buffer (100 mM, pH 7.2). For β-galactosidase (bovine liver), the activity was determined with 4-me

Prunasin hydrolase = target: T2, Prunasin hydrolase (Prunus dulcis, UniProt H9ZGE1); experiment: Inhibition Assay Against Commercial Glycosidases; settings: 37 °C
T2 sequence (H9ZGE1 whole entry): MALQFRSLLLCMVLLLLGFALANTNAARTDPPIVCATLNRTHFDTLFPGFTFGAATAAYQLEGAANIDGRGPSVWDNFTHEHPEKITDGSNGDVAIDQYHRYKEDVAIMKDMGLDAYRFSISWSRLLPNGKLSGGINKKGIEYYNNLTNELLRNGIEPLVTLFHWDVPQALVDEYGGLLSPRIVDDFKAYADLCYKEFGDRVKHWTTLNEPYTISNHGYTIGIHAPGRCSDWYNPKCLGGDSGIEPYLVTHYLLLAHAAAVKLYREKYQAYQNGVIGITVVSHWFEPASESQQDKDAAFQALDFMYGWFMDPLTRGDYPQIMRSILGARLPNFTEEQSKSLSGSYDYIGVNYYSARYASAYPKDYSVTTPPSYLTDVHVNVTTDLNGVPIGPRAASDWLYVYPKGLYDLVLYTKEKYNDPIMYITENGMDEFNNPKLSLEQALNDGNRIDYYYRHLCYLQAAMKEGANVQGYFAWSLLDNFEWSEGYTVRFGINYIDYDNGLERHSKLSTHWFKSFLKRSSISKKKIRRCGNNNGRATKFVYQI
Method: as §1

Alpha-glucosidase MAL12 = Alpha-glucosidase MAL12 (Saccharomyces cerevisiae (strain ATCC 204508 / S288c), UniProt P53341); experiment: Inhibition Assay Against Commercial Glycosidases; settings: 37 °C
Alpha-glucosidase MAL12, sequence (P53341 whole entry): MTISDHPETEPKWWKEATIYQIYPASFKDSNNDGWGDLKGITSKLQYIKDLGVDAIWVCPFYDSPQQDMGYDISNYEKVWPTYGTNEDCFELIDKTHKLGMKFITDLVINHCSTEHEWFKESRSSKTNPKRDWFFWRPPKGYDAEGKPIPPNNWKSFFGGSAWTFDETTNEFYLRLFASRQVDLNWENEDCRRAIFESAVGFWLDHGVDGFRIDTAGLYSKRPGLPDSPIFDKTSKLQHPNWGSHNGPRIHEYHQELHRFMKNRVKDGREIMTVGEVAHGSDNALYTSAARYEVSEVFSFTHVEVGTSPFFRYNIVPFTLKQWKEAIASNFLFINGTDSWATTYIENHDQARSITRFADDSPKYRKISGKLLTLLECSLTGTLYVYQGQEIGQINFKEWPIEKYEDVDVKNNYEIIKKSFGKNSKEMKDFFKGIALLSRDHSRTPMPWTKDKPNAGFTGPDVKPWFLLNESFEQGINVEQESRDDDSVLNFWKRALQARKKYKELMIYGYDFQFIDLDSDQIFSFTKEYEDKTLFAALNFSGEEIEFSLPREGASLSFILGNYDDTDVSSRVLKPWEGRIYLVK
Method: as §1

Beta-galactosidase = target: T3, Beta-galactosidase (Bos taurus, UniProt Q58D55); experiment: Inhibition Assay Against Commercial Glycosidases; settings: 37 °C
T3 sequence (Q58D55 whole entry): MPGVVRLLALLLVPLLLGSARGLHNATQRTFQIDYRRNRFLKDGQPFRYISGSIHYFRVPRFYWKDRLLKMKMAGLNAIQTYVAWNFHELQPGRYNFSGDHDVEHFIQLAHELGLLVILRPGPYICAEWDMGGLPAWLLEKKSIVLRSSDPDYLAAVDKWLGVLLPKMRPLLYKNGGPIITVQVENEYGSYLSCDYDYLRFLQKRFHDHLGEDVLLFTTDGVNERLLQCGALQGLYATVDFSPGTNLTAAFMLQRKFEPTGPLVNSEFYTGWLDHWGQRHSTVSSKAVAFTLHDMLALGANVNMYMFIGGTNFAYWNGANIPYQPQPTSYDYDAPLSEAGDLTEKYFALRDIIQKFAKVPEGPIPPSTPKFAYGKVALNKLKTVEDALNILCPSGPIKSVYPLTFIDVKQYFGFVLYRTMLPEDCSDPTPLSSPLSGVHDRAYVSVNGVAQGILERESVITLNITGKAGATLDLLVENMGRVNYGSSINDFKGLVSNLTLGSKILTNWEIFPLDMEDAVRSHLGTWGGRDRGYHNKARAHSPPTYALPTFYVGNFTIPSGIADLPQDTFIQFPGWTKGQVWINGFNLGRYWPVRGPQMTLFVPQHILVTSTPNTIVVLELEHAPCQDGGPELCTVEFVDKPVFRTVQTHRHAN
Method: as §1

Structure (SMILES) | IC50 ([1]; pH 5.2) | IC50 ([1]; pH 7) | Ki [2] | IC50 (Alpha-galactosidase) | IC50 (Prunasin hydrolase) | IC50 (Alpha-glucosidase MAL12) | IC50 (Beta-galactosidase)
OCC1C(O)C(O)C(O)c2nc(CCCc3ccc(-c4ccccc4)cc3)cn21 (centres undefined) [5-(hydroxymethyl)-2-[3-(4-phenylphenyl)propyl]-5H,6H,7H,8H-imidazo[1,2-a]pyridine-6,7,8-triol (Compound 7)] | 5.27 nM | 5.11 nM | 3.62 nM | 1660 nM | 42 nM | 6 nM | –
OCC1C(O)C(O)C(O)c2nccn21 (centres undefined) [5-(hydroxymethyl)-5H,6H,7H,8H-imidazo[1,2-a]pyridine-6,7,8-triol (Compound 1)] | 91.6 nM | 79.2 nM | 33.1 nM | 7290 nM | 220 nM | 98500 nM | 230 nM
CCCCCCCCCN1C[C@H](O)[C@@H](O)[C@H](O)[C@H]1CO | – | – | – | 9490 nM | 95900 nM | > 100000 nM | –
OCC1C(O)C(O)C(O)c2nc(CCCc3ccc(F)cc3)cn21 (centres undefined) [2-[3-(4-fluorophenyl)propyl]-5-(hydroxymethyl)-5H,6H,7H,8H-imidazo[1,2-a]pyridine-6,7,8-triol (Compound 9)] | 6.23 nM | 4.75 nM | 3.48 nM | 3750 nM | 31 nM | 730 nM | 230 nM
OCC1C(O)C(O)C(O)c2nc(CCc3ccccc3)cn21 (centres undefined) [5-(hydroxymethyl)-2-(2-phenylethyl)-5H,6H,7H,8H-imidazo[1,2-a]pyridine-6,7,8-triol (Compound 2)] | 3.71 nM | 2.04 nM | 3.19 nM | 16100 nM | 58 nM | 570 nM | 190 nM
Cc1ccc(CCCc2cn3c(n2)C(O)C(O)C(O)C3CO)cc1 (centres undefined) [5-(hydroxymethyl)-2-[3-(4-methylphenyl)propyl]-5H,6H,7H,8H-imidazo[1,2-a]pyridine-6,7,8-triol (Compound 5)] | 5.44 nM | 4.73 nM | 1.46 nM | 4480 nM | 42 nM | 280 nM | 100 nM
OCC1C(O)C(O)C(O)c2nc(CCCc3ccc(C4CCCCC4)cc3)cn21 (centres undefined) [2-[3-(4-cyclohexylphenyl)propyl]-5-(hydroxymethyl)-5H,6H,7H,8H-imidazo[1,2-a]pyridine-6,7,8-triol (Compound 8)] | 8.42 nM | 7.8 nM | 1.93 nM | 11400 nM | 4 nM | 52 nM | 1 nM
COc1ccc(CCCc2cn3c(n2)C(O)C(O)C(O)C3CO)cc1 (centres undefined) [5-(hydroxymethyl)-2-[3-(4-methoxyphenyl)propyl]-5H,6H,7H,8H-imidazo[1,2-a]pyridine-6,7,8-triol (Compound 6)] | 2.97 nM | 3.62 nM | 1.17 nM | 4900 nM | 78 nM | 300 nM | 92 nM
CCCCCCCCc1cn2c(n1)C(O)C(O)C(O)C2CO (centres undefined) [5-(hydroxymethyl)-2-octyl-5H,6H,7H,8H-imidazo[1,2-a]pyridine-6,7,8-triol (Compound 4)] | 8.39 nM | 5.05 nM | 5.38 nM | 12500 nM | 117 nM | 970 nM | 37 nM
CC(C)(CCCc1cn2c(n1)C(O)C(O)C(O)C2CO)C(=O)Nc1ccccc1 (centres undefined) [2,2-dimethyl-N-phenyl-5-[6,7,8-trihydroxy-5-(hydroxymethyl)-5H,6H,7H,8H-imidazo[1,2-a]pyridin-2-yl]pentanamide (Compound 11)] | 12 nM | 11.5 nM | 18.9 nM | 4710 nM | 910 nM | 12800 nM | 7830 nM
CC(C)(C)CCc1cn2c(n1)C(O)C(O)C(O)C2CO (centres undefined) [2-(3,3-dimethylbutyl)-5-(hydroxymethyl)-5H,6H,7H,8H-imidazo[1,2-a]pyridine-6,7,8-triol (Compound 3)] | 5.34 nM | 4.26 nM | 5.34 nM | 12800 nM | 79 nM | 3420 nM | 350 nM
O=C(CCCc1cn2c(n1)C(O)C(O)C(O)C2CO)Nc1ccccc1 (centres undefined) [N-phenyl-4-[6,7,8-trihydroxy-5-(hydroxymethyl)-5H,6H,7H,8H-imidazo[1,2-a]pyridin-2-yl]butanamide (Compound 10)] | 6.96 nM | 7.67 nM | 4.18 nM | 1480 nM | 140 nM | 1050 nM | 11800 nM

From BindingDB's records for doi:10.1002/cbic.201300197 (Nankai University, 2013)
